This experiment deals with recombinant, human, C-terminally-His tagged NAMPT (Homo sapiens, UniProt P43490). As to the kind of experiment: Time-Resolved Fluorescence Resonance Energy Transfer (TR-FRET) binding assay of NAMPT. Particulars: 6.8 nM NAMPT, 200 nM probe (Oregon Green 488-conjugated APO866), 1 nM Tb-anti-His antibody, 2-3 hours. The protocol: Determination of the utility of compounds having Formula (I) as binders to and inhibitors of NAMPT was performed using a Time-Resolved Fluorescence Resonance Energy Transfer (TR-FRET) binding assay.
recombinant, human, C-terminally-His tagged NAMPT, sequence (P43490 whole entry): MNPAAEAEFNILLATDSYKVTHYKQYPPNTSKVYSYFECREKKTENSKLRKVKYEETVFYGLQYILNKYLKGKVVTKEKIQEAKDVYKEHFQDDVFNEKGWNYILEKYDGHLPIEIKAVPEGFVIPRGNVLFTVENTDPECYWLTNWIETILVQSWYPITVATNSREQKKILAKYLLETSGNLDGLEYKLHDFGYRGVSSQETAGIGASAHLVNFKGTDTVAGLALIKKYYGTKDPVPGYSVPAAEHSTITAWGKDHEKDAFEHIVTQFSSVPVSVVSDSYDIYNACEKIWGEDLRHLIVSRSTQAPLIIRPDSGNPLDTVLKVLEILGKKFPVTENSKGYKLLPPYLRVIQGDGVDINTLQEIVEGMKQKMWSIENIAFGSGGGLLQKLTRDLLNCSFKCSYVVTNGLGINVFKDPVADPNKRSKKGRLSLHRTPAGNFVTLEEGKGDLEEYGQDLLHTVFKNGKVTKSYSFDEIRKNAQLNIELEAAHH
Time-Resolved Fluorescence Resonance Energy Transfer (TR-FRET) Binding Assay of NAMPT
The assay was carried out in 18 uL low volume plates (Owens Corning) in reaction buffer (50 mM HEPES (NaOH), pH 7.5, 100 mM NaCl, 10 mM MgCl2, 1 mM DTT, 1% Glycerol) using 6.8 nM recombinant, human, C-terminally-His tagged NAMPT, 1 nM Tb-anti-His antibody (Invitrogen, Cat # PV5895), and 200 nM probe (Oregon Green 488-conjugated APO866; A-1251667.0). Plates were covered, and reactions were carried out for 2-3 hours. Plates were read with Envision (Laser Lantha low volume protocol) after 2 to 3 hours. Excitation was carried out at 337 nm, and the ratio of emission of Oregon Green (520 nm) to terbium (492 nm) was determined and used to calculate IC50 values of test compounds.
For orientation: TR-FRET usually uses a lanthanide donor and a delayed reading to cut background.

Consider `O=C(Nc1ccc(NC(=O)N2CCc3ccccc3C2)cc1)C1Cc2ccccc2O1` (racemic) [Example 68, N-{4-[((2R)-2,3-dihydro-1-benzofuran-2-ylcarbonyl)amino]phenyl}-3,4-dihydroisoquinoline-2(1H)-carboxamide and N-{4-[((2S)-2,3-dihydro-1-benzofuran-2-ylcarbonyl)amino]phenyl}-3,4-dihydroisoquinoline-2(1H)-carboxamide], for which the IC50 (commonly the concentration needed to halve the response being measured) came out at 4.45 nM. Consider `CCC(C)CC(=O)Nc1ccc(NC(=O)N2CCc3ccccc3C2)cc1` (racemic) [Example 69, N-{4-[((3R)-3-methylpentanoyl)amino]phenyl}-3,4-dihydroisoquinoline-2(1H)-carboxamide and N-{4-[((3S)-3-methylpentanoyl)amino]phenyl}-3,4-dihydroisoquinoline-2(1H)-carboxamide], for which the IC50 amounted to 6.49 nM.

With `O=C(Nc1ccc(NC(=O)N2CCc3ccccc3C2)cc1)C1CCOC1` (racemic) [Example 75, N-{4-[((3R)-tetrahydrofuran-3-ylcarbonyl)amino]phenyl}-3,4-dihydroisoquinoline-2(1H)-carboxamide and N-{4-[((3S)-tetrahydrofuran-3-ylcarbonyl)amino]phenyl}-3,4-dihydroisoquinoline-2(1H)-carboxamide], the IC50 stood at 196 nM. Turning to `CC(C)CCNC(=O)c1ccc(NC(=O)N2CCc3ccccc3C2)cc1` [Example 1, N-{4-[(3-methylbutyl)carbamoyl]phenyl}-3,4-dihydroisoquinoline-2(1H)-carboxamide], the IC50 is 16.7 nM. Next, `O=C(Nc1ccc(C(=O)N2CCN(c3ccccn3)CC2)cc1)N1CCc2ccccc2C1` [Example 2, N-(4-{[4-(pyridin-2-yl)piperazin-1-yl]carbonyl}phenyl)-3,4-dihydroisoquinoline-2(1H)-carboxamide]: 13.2 nM.

As to `O=C(NCCCc1ccccc1)c1ccc(NC(=O)N2CCc3cc(F)ccc3C2)cc1` [Example 3, 6-fluoro-N-{4-[(3-phenylpropyl)carbamoyl]phenyl}-3,4-dihydroisoquinoline-2(1H)-carboxamide], the IC50 came out at 13.8 nM. Next, `O=C(NCCCc1ccccc1)c1ccc(NC(=O)N2CCc3cnccc3C2)cc1` [Example 4, N-{4-[(3-phenylpropyl)carbamoyl]phenyl}-3,4-dihydro-2,6-naphthyridine-2(1H)-carboxamide]: 15 nM; `CC(C)CCNC(=O)c1ccc(NC(=O)N2CCc3cnccc3C2)cc1` [Example 5, N-{4-[(3-methylbutyl)carbamoyl]phenyl}-3,4-dihydro-2,6-naphthyridine-2(1H)-carboxamide]: 15.7 nM. For the compound `CC(C)CCNC(=O)c1ccc(NC(=O)N2CCc3cc(F)ccc3C2)cc1` [Example 6, 6-fluoro-N-{4-[(3-methylbutyl)carbamoyl]phenyl}-3,4-dihydroisoquinoline-2(1H)-carboxamide], the IC50 turned out to be 10.3 nM. In the case of `O=C(NCCCc1ccccc1)c1ccc(NC(=O)N2CCc3ccccc3C2)cc1` [Example 7, N-{4-[(3-phenylpropyl)carbamoyl]phenyl}-3,4-dihydroisoquinoline-2(1H)-carboxamide], the IC50 stood at 20.7 nM.

With `O=C(NCc1ccccc1)c1ccc(NC(=O)N2CCc3ccccc3C2)cc1` [Example 8, N-[4-(benzylcarbamoyl)phenyl]-3,4-dihydroisoquinoline-2(1H)-carboxamide], the IC50 stood at 23.7 nM. As for `O=C(NCCCc1ccccc1)c1ccc(NC(=O)N2CCc3ccccc3C2)nc1` [Example 9, N-{5-[(3-phenylpropyl)carbamoyl]pyridin-2-yl}-3,4-dihydroisoquinoline-2(1H)-carboxamide], the IC50 stood at 29.1 nM. `CC(C)CCNC(=O)c1ccc(NC(=O)N2CCc3ccccc3C2)nc1` [Example 10, N-{5-[(3-methylbutyl)carbamoyl]pyridin-2-yl}-3,4-dihydroisoquinoline-2(1H)-carboxamide]: the IC50 worked out at 29.4 nM.

Turning to `CC(C)CCn1cc(NC(=O)c2ccc(NC(=O)N3CCc4ccccc4C3)cc2)cn1` [Example 11, N-(4-{[1-(3-methylbutyl)-1H-pyrazol-4-yl]carbamoyl}phenyl)-3,4-dihydroisoquinoline-2(1H)-carboxamide], the IC50 came to 43.3 nM. The result for `O=C(NCCc1cccs1)c1ccc(NC(=O)N2CCc3cnccc3C2)cc1` [Example 12, N-(4-{[2-(2-thienyl)ethyl]carbamoyl}phenyl)-3,4-dihydro-2,6-naphthyridine-2(1H)-carboxamide] reads 45.2 nM. `O=C(NCCc1cccs1)c1ccc(NC(=O)N2CCc3cc(F)ccc3C2)cc1` [Example 13, 6-fluoro-N-(4-{[2-(2-thienyl)ethyl]carbamoyl}phenyl)-3,4-dihydroisoquinoline-2(1H)-carboxamide]: the IC50 was found to be 45.8 nM. Regarding `O=C(Nc1cnn(Cc2ccccc2)c1)c1ccc(NC(=O)N2CCc3ccccc3C2)cc1` [Example 14, N-{4-[(1-benzyl-1H-pyrazol-4-yl)carbamoyl]phenyl}-3,4-dihydroisoquinoline-2(1H)-carboxamide], the IC50 came to 47.1 nM. On to `O=C(NCCc1ccccc1)c1ccc(NC(=O)N2CCc3ccccc3C2)cc1` [Example 15, N-{4-[(2-phenylethyl)carbamoyl]phenyl}-3,4-dihydroisoquinoline-2(1H)-carboxamide], for which the IC50 came to 97.6 nM.

As to `CC(C)CCNC(=O)c1ccc(NC(=O)N2CCc3ccc(F)cc3C2)cc1` [Example 16, 7-fluoro-N-{4-[(3-methylbutyl)carbamoyl]phenyl}-3,4-dihydroisoquinoline-2(1H)-carboxamide], the 50% inhibitory concentration (IC50) is 171 nM. Regarding `O=C(NCCc1cccs1)c1ccc(NC(=O)N2CCc3ccccc3C2)cc1` [Example 17, N-(4-{[2-(2-thienyl)ethyl]carbamoyl}phenyl)-3,4-dihydroisoquinoline-2(1H)-carboxamide], the IC50 was found to be 178 nM. For `CC(C)CCNC(=O)c1ccc(NC(=O)N2CCc3ccccc3C2)cn1` [Example 18, N-{6-[(3-methylbutyl)carbamoyl]pyridin-3-yl}-3,4-dihydroisoquinoline-2(1H)-carboxamide], the IC50 was 178 nM. `O=C(NCCc1cccs1)c1ccc(NC(=O)N2CCc3ccccc3C2)nc1` [Example 19, N-(5-{[2-(2-thienyl)ethyl]carbamoyl}pyridin-2-yl)-3,4-dihydroisoquinoline-2(1H)-carboxamide]: the IC50 worked out at 195 nM.

In the case of `O=C(NCCCc1ccccc1)c1ccc(NC(=O)N2CCc3ccc(F)cc3C2)cc1` [Example 20, 7-fluoro-N-{4-[(3-phenylpropyl)carbamoyl]phenyl}-3,4-dihydroisoquinoline-2(1H)-carboxamide], the IC50 was determined as 248 nM. In the case of `O=C(NCCCc1ccccc1)c1ccc(NC(=O)N2CCc3ccccc3C2)cn1` [Example 21, N-{6-[(3-phenylpropyl)carbamoyl]pyridin-3-yl}-3,4-dihydroisoquinoline-2(1H)-carboxamide], the IC50 is 286 nM. Take `O=C(NCCc1cccs1)c1ccc(NC(=O)N2CCc3ccccc3C2)cn1` [Example 22, N-(6-{[2-(2-thienyl)ethyl]carbamoyl}pyridin-3-yl)-3,4-dihydroisoquinoline-2(1H)-carboxamide]: the IC50 stood at 309 nM. Take `O=C(NCCc1cccs1)c1ccc(NC(=O)N2CCc3ccc(F)cc3C2)cc1` [Example 23, 7-fluoro-N-(4-{[2-(2-thienyl)ethyl]carbamoyl}phenyl)-3,4-dihydroisoquinoline-2(1H)-carboxamide]: the IC50 stood at 366 nM. For the compound `O=C(NCCCc1ccccc1)c1ccc(NC(=O)N2CCc3ccncc3C2)cc1` [Example 25, N-{4-[(3-phenylpropyl)carbamoyl]phenyl}-3,4-dihydro-2,7-naphthyridine-2(1H)-carboxamide], the IC50 worked out at 597 nM. Take `O=C(Cc1ccc(NC(=O)N2CCc3ccccc3C2)cc1)NCCc1cccs1` [Example 26, N-[4-(2-oxo-2-{[2-(2-thienyl)ethyl]amino}ethyl)phenyl]-3,4-dihydroisoquinoline-2(1H)-carboxamide]: the IC50 is 800 nM.

As for `O=C(Cc1ccc(NC(=O)N2CCc3ccccc3C2)cc1)NCCCc1ccccc1` [Example 27, N-(4-{2-oxo-2-[(3-phenylpropyl)amino]ethyl}phenyl)-3,4-dihydroisoquinoline-2(1H)-carboxamide], the IC50 amounted to 1030 nM.

As to `CC(C)CCNC(=O)c1ccc(NC(=O)N2CCc3ccncc3C2)cc1` [Example 28, N-{4-[(3-methylbutyl)carbamoyl]phenyl}-3,4-dihydro-2,7-naphthyridine-2(1H)-carboxamide], the IC50 stood at 1250 nM.

With `CC(C)CCNC(=O)Cc1ccc(NC(=O)N2CCc3ccccc3C2)cc1` [Example 29, N-(4-{2-[(3-methylbutyl)amino]-2-oxoethyl}phenyl)-3,4-dihydroisoquinoline-2(1H)-carboxamide], the IC50 is 1500 nM.

For `O=C(NCCc1cccs1)c1ccc(NC(=O)N2CCc3ccncc3C2)cc1` [Example 30, N-(4-{[2-(2-thienyl)ethyl]carbamoyl}phenyl)-3,4-dihydro-2,7-naphthyridine-2(1H)-carboxamide], the IC50 was 2110 nM. Regarding `CC(C)CCC(=O)Nc1ccc(NC(=O)N2CCc3ccccc3C2)cc1` [Example 31, N-{4-[(4-methylpentanoyl)amino]phenyl}-3,4-dihydroisoquinoline-2(1H)-carboxamide], the IC50 was determined as 6.16 nM. With `O=C(CCCc1ccccc1)Nc1ccc(NC(=O)N2CCc3ccccc3C2)cc1` [Example 32, N-{4-[(4-phenylbutanoyl)amino]phenyl}-3,4-dihydroisoquinoline-2(1H)-carboxamide], the 50% inhibitory concentration (IC50) is 12 nM.

These data come from patent US20120122924A1, “NAMPT INHIBITORS” (ABBOTT LABORATORIES, priority 2010, published 2012).
